Reference: ChEMBL document CHEMBL3608289, “Miltirone Is a Dual Inhibitor of P-Glycoprotein and Cell Growth in Doxorubicin-Resistant HepG2 Cells” (J Nat Prod, 2015)
Active and inactive are the calls of the source. No cut-off for these calls is given here.

Columns and labels:
HepG2 [1] = assay: Induction of ROS generation in human HepG2 cells at 25 uM after 15 to 30 mins using H2DCFH dye by confocal microscopy; format: functional, cell-based
HepG2 [2] = assay: Induction of necrosis in human HepG2 cells assessed as LDH leakage at 25 uM after 24 hrs; format: functional, cell-based
HepG2 [3] = assay: Induction of apoptosis in human HepG2 cells assessed as activation of caspase-3/8/9 at 12.5 after 24 hrs by Western blotting in presence of trolox; format: functional, cell-based
HepG2 [4] = assay: Increase of SAPK/JNK phosphorylation in human HepG2 cells at 1.56 to 25 uM by Western blot analysis; format: cell-based
[5] = target: T1, Mitogen-activated protein kinase; ERK1/ERK2 (Homo sapiens) (UniProt P27361+P28482); assay: Inhibition of ERK1/2 phosphorylation in human doxorubicin-resistant HepG2 cells expressing p-gp at 1.56 to 25 uM by Western blot analysis; format: cell-based
T1 sequence (P27361 whole entry, looked up): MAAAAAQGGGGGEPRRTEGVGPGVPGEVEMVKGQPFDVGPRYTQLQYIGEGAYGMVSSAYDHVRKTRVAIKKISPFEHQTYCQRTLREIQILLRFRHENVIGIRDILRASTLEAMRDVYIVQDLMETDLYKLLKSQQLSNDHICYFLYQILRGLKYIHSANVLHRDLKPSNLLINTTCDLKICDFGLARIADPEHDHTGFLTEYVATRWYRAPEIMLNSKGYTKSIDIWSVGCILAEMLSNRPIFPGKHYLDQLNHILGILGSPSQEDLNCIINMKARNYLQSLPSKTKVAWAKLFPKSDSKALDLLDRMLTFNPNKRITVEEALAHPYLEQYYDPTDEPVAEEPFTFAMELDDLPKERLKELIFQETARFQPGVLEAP
T1 sequence (P28482 whole entry, looked up): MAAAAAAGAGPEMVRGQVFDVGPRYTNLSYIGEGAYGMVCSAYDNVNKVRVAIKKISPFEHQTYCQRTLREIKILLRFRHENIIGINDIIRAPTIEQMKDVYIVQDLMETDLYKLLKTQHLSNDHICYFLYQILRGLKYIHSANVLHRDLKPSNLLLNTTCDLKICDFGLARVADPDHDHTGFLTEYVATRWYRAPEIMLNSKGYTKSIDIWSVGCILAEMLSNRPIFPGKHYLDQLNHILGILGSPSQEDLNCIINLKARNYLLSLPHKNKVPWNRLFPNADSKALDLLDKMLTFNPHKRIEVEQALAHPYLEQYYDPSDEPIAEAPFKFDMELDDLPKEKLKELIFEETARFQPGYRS

HepG2 [6] = assay: Induction of apoptosis in human doxorubicin-resistant HepG2 cells expressing p-gp assessed as increase in PARP cleavage after 24 hrs by Western blotting; format: functional, cell-based
HepG2 [7] = assay: Induction of apoptosis in human HepG2 cells assessed as activation of caspase-3/8/9 at 12.5 after 24 hrs by Western blotting in presence of Z-VAD-FMK; format: functional, cell-based
HepG2 [8] = assay: Increase of SAPK/JNK phosphorylation in human HepG2 cells at 1.56 to 25 uM by Western blot analysis in presence of SB203580; format: cell-based
HepG2 [9] = assay: Induction of oxidative stress in human doxorubicin-resistant HepG2 cells expressing p-gp assessed as decrease of GSH level per gram of protein at 25 uM after 24 hrs using DTNB by enzymatic kinetic method relative to control; format: functional
HepG2 [10] = assay: Increase of SAPK/JNK phosphorylation in human doxorubicin-resistant HepG2 cells expressing p-gp at 1.56 to 25 uM by Western blot analysis in presence of SB203580; format: cell-based
HepG2 [11] = assay: Effect on nonphosphorylated ERK1/ERK2 level in human HepG2 cells at 25 uM by Western blot analysis; format: ADME, cell-based; details: hepg2, 25 µM
[12] = target: T1, Mitogen-activated protein kinase; ERK1/ERK2 (Homo sapiens); assay: Inhibition of ERK1/2 phosphorylation in human HepG2 cells at 1.56 to 25 uM by Western blot analysis; format: cell-based
[13] = target: T2, MAP kinase p38 (Homo sapiens) (UniProt O15264+Q15759+Q16539+P53778); assay: Inhibition of p38 MAPK phosphorylation in human doxorubicin-resistant HepG2 cells expressing p-gp at 1.56 to 25 uM by Western blot analysis in presence of SB203580; format: cell-based
HepG2 [14] = assay: Induction of oxidative stress in human HepG2 cells assessed as decrease of GSH level per gram of protein at 25 uM after 24 hrs using DTNB by enzymatic kinetic method relative to control; format: functional
HepG2 [15] = assay: Effect on nonphosphorylated SAPK/JNK level in human HepG2 cells at 25 uM by Western blot analysis; format: ADME, cell-based; details: hepg2, 25 µM
[16] = target: T1, Mitogen-activated protein kinase; ERK1/ERK2 (Homo sapiens); assay: Inhibition of ERK1/2 phosphorylation in human doxorubicin-resistant HepG2 cells expressing p-gp at 1.56 to 25 uM by Western blot analysis in presence of NAC; format: cell-based
HepG2 [17] = assay: Induction of oxidative stress in human HepG2 cells assessed as decrease of GSSG level per gram of protein at 25 uM after 24 hrs using DTNB by enzymatic kinetic method relative to control; format: functional
HepG2 [18] = assay: Cytotoxicity against human HepG2 cells after 24 hrs by MTT assay; format: functional, cell-based; details: HepG2, 24 h
[19] = target: T1, Mitogen-activated protein kinase; ERK1/ERK2 (Homo sapiens); assay: Inhibition of ERK1/2 phosphorylation in human HepG2 cells at 1.56 to 25 uM by Western blot analysis in presence of NAC; format: cell-based
HepG2 [20] = assay: Induction of oxidative stress in human doxorubicin-resistant HepG2 cells expressing p-gp assessed as decrease of GSH level per gram of protein at 1.56 to 3.12 uM after 24 hrs using DTNB by enzymatic kinetic method relative to control; format: functional, cell-based
HepG2 [21] = assay: Induction of apoptosis in human doxorubicin-resistant HepG2 cells expressing p-gp assessed as activation of caspase-3/8/9 after 24 hrs by Western blotting; format: functional, cell-based
HepG2 [22] = assay: Induction of necrosis in human HepG2 cells assessed as LDH leakage at >50 uM after 24 hrs; format: functional, cell-based
HepG2 [23] = assay: Induction of apoptosis in human HepG2 cells assessed as activation of caspase-3/8/9 at 12.5 after 24 hrs by Western blotting in presence of Z-IETD-FMK; format: functional, cell-based
HepG2 [24] = assay: Effect on nonphosphorylated ERK1/ERK2 level in human doxorubicin-resistant HepG2 cells expressing p-gp at 25 uM by Western blot analysis; format: ADME, cell-based; details: hepg2, 25 µM
HepG2 [25] = assay: Induction of apoptosis in human doxorubicin-resistant HepG2 cells expressing p-gp assessed as activation of caspase-3/8/9 at 12.5 after 24 hrs by Western blotting in presence of trolox; format: functional, cell-based
HepG2 [26] = assay: Induction of oxidative stress in human doxorubicin-resistant HepG2 cells expressing p-gp assessed as increase of GSH/GSSG ratio at 1.56 to 3.12 uM after 24 hrs using DTNB by enzymatic kinetic method; format: functional, cell-based
[27] = target: T2, MAP kinase p38 (Homo sapiens); assay: Inhibition of p38 MAPK phosphorylation in human doxorubicin-resistant HepG2 cells expressing p-gp at 1.56 to 25 uM by Western blot analysis in presence of NAC; format: cell-based
HepG2 [28] = assay: Competitive inhibition of p-glycoprotein in doxorubicin-resistant human HepG2 cells assessed as reduction of doxorubicin efflux after 1 hr by primary Lineweaver-Burk plot analysis; format: cell-based
HepG2 [29] = assay: Cytotoxicity against human doxorubicin-resistant HepG2 cells expressing p-gp assessed as combination index after 24 hrs by MTT assay in presence of doxorubicin; format: functional
[30] = target: T2, MAP kinase p38 (Homo sapiens); assay: Inhibition of p38 MAPK phosphorylation in human doxorubicin-resistant HepG2 cells expressing p-gp at 1.56 to 25 uM by Western blot analysis; format: cell-based
[31] = Cytotoxicity against human PLC/PRF/5 cells after 24 hrs by MTT assay in presence of doxorubicin; format: functional, cell-based; details: PLC-PRF-5, 24 h

inhibition [5]: Active
inhibition [12]: Active
inhibition [13]: inactive
inhibition [16]: inactive
inhibition [19]: inactive
inhibition [27]: inactive
inhibition [30]: Active
Compound: CC(C)C1=Cc2ccc3c(c2C(=O)C1=O)CCCC3(C)C [MILTIRONE]
Activity (HepG2 [1]): Active
Activity (HepG2 [2]): inactive
Activity (HepG2 [3]): inactive
Activity (HepG2 [4]): Active
Activity (HepG2 [6]): Active
Activity (HepG2 [7]): inactive
Activity (HepG2 [8]): inactive
Activity (HepG2 [9]): 1.2 µmol
Activity (HepG2 [10]): Active
Activity (HepG2 [11]): Non-toxic
Activity (HepG2 [14]): 2.4 µmol
Activity (HepG2 [15]): Non-toxic
Activity (HepG2 [17]): 3.5 µmol
EC50 (HepG2 [18]): 7.1 µM
Activity (HepG2 [20]): inactive
Activity (HepG2 [21]): Active
Activity (HepG2 [22]): Active
Activity (HepG2 [23]): inactive
Activity (HepG2 [24]): Non-toxic
Activity (HepG2 [25]): inactive
Activity (HepG2 [26]): inactive
inhibition (HepG2 [28]): Active
CI (HepG2 [29]): 1.56
EC50 [31]: 17.4 µM
